Read-outs that look alike come from different tables or passages of the source.
Biological target: T1, gastric H,K-ATPase (Sus scrofa, UniProt P19156)
T1 construct: We prepared H,K-ATPase (EC 7.2.2.19)-enriched membrane vesicles according to Sachs et al; from tissue; host or cells: gastric membrane vesicles
Test: H,K-ATPase activity (Pi release from ATP) inhibition, steady-state kinetic analysis
Type: biochemical, hog
Conditions: for IC50: 10 mM KCl, read-out: K0.5 for inhibition of ATPase activity; for Kd: fit of model III (binding to E2P and E1ATP), 37 °C
Description: We prepared H,K-ATPase (EC 7.2.2.19)-enriched membrane vesicles according to Sachs et al. ([36]), with slight modifications. The number of nucleotide sites measured under optimal conditions (2.2 mM ATP, 4 mM MgCl2, 0.25 mM EDTA in 25 mM imidazole–HCl, pH 7.4 at 25 °C) was 1.4 nmol per mg of protein. This preparation is essentially free of contamination with Na,K-ATPase, as evidenced by the lack of ouabain-sensitive activity. 0.4 to 0.6 mg alamethicin per milligram protein was used to permeabilize the vesicles.
ATP hydrolysis by H,K-ATPase was measured by following the time course of Pi release at 37 °C; linearity was always checked in order to ensure initial rate conditions. Pi concentration was determined according to the method described by Baginski et al. ([37]) Incubations were performed at 37 °C in media containing 8 μg protein ml^−1, 2 mM ATP, 4 mM MgCl2, and 0.25 mM EDTA in 20 mM imidazole – 20 mM Tris (varying pH) in a final volume of 0.25 ml. KCl concentrations varied between 0 and 100 mM, using choline chloride to adjust total monovalent salt concentration to 150 mM. Reaction blanks were determined by measuring ATP hydrolysis in media containing vanadate. For experiments at variable pH, a buffer combination of 20 mM imidazole-HCl and 20 mM Tris–HCl was used. Tegoprazan and SCH28080 were dissolved in DMSO. The final DMSO concentration in the reaction media was 1%.
were fitted to the data of ATPase activity by nonlinear regression based on the Gauss–Newton algorithm by commercial programs ([38]). Kis parameters are apparent dissociation constants expressed in concentration units, whereas the ais parameters are coefficients with units of activity. A methodical exploration of the equation that best fits each set of results was performed. We first determined the degree of the polynomials in the numerator and the denominator (considering the restriction of n ≤ d and m ≤ d to conform to steady-state equations for enzymes) and then evaluated the contribution of terms of intermediate degree. The goodness of fit of a given equation to the experimental results was evaluated by the AICc ([39]) defined as(5) AICc=N·ln(SS/N)+2·(K+1)·N/(N−K−2) with N: number of data, K: number of parameters, and SS: sum of weighted square residual errors. This criterion allows one to select among multiple equations, the one that best describes the behavior of the experimental data using the least number of parameters, that is the lower value of AICc.
The equations of activity as a function of ligands for each kinetic model were attained using the Mathematica for Windows program. To determine the parameters that will be used to simulate the data, the rate constants and pKa values were fitted to the results using a procedure based on the Gauss–Newton algorithm until the SD of the residual errors reaches a minimal value.

T1 sequence (P19156 2-1034 limits assumed): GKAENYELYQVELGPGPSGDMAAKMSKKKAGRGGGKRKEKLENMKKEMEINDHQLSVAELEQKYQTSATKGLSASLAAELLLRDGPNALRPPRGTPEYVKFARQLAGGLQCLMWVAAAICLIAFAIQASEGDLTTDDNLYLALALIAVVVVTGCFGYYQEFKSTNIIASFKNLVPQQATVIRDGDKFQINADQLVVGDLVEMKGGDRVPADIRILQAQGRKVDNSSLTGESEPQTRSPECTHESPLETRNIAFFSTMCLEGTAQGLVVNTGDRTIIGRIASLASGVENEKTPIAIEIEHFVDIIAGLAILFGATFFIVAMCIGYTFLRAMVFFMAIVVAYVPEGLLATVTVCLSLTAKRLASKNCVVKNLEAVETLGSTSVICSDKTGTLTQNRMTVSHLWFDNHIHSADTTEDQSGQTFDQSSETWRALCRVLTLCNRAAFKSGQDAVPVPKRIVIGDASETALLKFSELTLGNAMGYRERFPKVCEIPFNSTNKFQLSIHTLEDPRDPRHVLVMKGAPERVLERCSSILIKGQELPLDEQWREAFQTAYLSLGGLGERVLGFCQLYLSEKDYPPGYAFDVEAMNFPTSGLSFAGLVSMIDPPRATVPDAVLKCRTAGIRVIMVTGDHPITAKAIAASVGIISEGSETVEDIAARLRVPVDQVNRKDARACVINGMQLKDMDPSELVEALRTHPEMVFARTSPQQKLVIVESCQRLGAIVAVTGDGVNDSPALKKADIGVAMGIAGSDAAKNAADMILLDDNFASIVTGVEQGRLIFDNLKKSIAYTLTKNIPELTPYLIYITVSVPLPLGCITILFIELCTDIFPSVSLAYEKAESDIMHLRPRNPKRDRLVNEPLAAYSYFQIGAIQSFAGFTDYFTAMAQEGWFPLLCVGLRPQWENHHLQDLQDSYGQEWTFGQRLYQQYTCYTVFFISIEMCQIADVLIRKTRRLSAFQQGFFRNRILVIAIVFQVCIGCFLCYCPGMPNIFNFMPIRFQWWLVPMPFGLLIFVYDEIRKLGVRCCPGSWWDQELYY
T1 sequence (P18434 whole entry partner): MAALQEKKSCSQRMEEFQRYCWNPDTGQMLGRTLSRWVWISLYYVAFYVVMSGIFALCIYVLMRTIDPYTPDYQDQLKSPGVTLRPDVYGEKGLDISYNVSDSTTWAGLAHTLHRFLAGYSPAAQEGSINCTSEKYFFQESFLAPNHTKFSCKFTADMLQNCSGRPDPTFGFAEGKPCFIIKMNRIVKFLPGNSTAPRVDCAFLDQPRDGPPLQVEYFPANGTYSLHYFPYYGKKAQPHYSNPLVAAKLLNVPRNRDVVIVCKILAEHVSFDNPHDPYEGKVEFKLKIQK

Cc1nc2c(O[C@H]3CCOc4cc(F)cc(F)c43)cc(C(=O)N(C)C)cc2[nH]1 [tegoprazan, (S)-4-((5,7-difluorochroman-4-yl)oxy)-N,N,2-trimethyl−1Hbenzo[d]imidazole-6-carboxamide]
effect of inhibitor on K0.5 for potassium (Equation 3) ([K+] 0-15 mM, pH 7.2): increase in K0.5
effect of inhibitor on Vmax (Equation 3) ([K+] 0-15 mM, pH 7.2): decrease in Vmax
effect of inhibitor on K1, apparent high-affinity dissociation constant for K+ (Equation 1) ([K+] 0-75 mM): increase in K1
effect of inhibitor on K2, apparent low-affinity dissociation constant for K+ (Equation 1) ([K+] 0-75 mM): slight increase
effect of inhibitor on a1, theoretical maximal activity (Equation 1) ([K+] 0-75 mM): decreases as a function of the inhibitor concentration
Kii, equilibrium constant for low-affinity binding (E2KATP), model II (fit of model II (binding to E2P and E2KATP), [K+] 0-75 mM): 3.55 µM
Ki (fit of model II (binding to E2P and E2KATP), [K+] 0-75 mM, read-out: Ki, equilibrium constant for high-affinity binding (E2P), model II): 410 nM
IC50 (pH 6.2): 890 ± 40 nM
IC50 (pH 7.2): 3250 ± 290 nM
Kd (pH 7.2, [K+] 0-75 mM, read-out: apparent Kd / apparent affinity constant, high-affinity binding (Ki) to E2P, model III): 560 ± 40 nM
Kd (pH 7.2, [K+] 0-75 mM, read-out: apparent Kd / apparent affinity constant, low-affinity binding (Kii) to E1ATP, model III): 2700 ± 240 nM

From publication PMC11697777, “How ligands modulate the gastric H,K-ATPase activity and its inhibition by tegoprazan” (The Journal of Biological Chemistry, 2024)
